Assay [1] deals with Sucrase-isomaltase, intestinal (Homo sapiens, UniProt P14410). The assay is described as follows: Inhibition of sucrase.
Assay [2] in a line: Cytotoxicity against human Bre04 cells. It is filed as functional.
Assay [3] is described as follows: Cytotoxicity against human N04 cells. Type of assay: functional.
In another assay the target is Maltase-glucoamylase (Homo sapiens, UniProt O43451). Nature of the assay: Inhibition of maltase.
Assay [4] is described as follows: Inhibition of alpha-amylase.
Assay [5] is described as follows: Cytotoxicity against human Lu04 cells. Type of assay: functional.

Chain of Sucrase-isomaltase, intestinal (P14410 2-1007 limits assumed): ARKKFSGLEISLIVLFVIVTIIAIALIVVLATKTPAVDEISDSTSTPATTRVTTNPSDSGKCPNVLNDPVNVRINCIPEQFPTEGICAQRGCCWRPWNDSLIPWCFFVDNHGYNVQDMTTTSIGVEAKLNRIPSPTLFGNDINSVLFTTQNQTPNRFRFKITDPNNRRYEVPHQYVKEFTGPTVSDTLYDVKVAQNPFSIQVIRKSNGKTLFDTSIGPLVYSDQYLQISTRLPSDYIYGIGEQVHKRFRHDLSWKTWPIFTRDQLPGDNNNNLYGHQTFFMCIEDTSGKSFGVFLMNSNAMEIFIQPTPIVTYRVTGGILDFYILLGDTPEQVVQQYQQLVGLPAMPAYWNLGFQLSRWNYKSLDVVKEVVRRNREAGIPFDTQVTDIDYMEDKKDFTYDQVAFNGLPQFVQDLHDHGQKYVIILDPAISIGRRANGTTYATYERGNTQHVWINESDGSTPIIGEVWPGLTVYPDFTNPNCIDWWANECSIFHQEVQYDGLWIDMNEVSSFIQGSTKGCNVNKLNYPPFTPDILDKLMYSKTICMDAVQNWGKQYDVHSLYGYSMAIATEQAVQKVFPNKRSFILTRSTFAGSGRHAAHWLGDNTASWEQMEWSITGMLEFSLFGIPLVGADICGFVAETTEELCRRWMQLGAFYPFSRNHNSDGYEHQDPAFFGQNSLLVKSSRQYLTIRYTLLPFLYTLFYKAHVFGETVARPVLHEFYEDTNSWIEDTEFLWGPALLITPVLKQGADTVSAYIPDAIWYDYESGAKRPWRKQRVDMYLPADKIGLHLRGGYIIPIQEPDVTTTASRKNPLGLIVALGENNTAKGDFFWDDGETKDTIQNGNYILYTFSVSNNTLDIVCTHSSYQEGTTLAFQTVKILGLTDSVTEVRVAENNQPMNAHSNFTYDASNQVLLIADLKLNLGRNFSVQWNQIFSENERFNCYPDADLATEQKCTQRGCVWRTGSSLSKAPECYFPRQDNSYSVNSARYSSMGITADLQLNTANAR
Chain of Sucrase-isomaltase, intestinal (P14410 1008-1827 limits assumed): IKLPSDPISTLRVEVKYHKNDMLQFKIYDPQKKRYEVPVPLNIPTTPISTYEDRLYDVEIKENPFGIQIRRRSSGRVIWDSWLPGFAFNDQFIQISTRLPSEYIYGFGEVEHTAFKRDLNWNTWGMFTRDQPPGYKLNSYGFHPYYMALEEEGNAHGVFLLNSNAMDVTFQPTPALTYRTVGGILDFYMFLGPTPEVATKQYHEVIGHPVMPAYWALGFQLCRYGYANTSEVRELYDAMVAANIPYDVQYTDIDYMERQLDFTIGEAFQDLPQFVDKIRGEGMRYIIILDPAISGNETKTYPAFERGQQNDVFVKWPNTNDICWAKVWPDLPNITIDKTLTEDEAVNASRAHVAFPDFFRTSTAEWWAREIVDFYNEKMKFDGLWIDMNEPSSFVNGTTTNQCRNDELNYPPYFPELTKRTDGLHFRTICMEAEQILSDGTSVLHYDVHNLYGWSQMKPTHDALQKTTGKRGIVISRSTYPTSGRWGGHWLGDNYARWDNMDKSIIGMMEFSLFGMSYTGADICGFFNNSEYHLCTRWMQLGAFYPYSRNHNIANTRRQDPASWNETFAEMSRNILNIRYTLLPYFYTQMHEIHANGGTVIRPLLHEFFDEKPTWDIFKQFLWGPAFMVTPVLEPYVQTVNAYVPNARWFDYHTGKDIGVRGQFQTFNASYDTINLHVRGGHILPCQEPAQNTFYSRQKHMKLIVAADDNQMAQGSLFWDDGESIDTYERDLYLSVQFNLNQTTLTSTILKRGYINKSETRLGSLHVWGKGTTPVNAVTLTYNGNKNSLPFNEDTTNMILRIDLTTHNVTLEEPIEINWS
Chain of Maltase-glucoamylase (O43451 whole entry): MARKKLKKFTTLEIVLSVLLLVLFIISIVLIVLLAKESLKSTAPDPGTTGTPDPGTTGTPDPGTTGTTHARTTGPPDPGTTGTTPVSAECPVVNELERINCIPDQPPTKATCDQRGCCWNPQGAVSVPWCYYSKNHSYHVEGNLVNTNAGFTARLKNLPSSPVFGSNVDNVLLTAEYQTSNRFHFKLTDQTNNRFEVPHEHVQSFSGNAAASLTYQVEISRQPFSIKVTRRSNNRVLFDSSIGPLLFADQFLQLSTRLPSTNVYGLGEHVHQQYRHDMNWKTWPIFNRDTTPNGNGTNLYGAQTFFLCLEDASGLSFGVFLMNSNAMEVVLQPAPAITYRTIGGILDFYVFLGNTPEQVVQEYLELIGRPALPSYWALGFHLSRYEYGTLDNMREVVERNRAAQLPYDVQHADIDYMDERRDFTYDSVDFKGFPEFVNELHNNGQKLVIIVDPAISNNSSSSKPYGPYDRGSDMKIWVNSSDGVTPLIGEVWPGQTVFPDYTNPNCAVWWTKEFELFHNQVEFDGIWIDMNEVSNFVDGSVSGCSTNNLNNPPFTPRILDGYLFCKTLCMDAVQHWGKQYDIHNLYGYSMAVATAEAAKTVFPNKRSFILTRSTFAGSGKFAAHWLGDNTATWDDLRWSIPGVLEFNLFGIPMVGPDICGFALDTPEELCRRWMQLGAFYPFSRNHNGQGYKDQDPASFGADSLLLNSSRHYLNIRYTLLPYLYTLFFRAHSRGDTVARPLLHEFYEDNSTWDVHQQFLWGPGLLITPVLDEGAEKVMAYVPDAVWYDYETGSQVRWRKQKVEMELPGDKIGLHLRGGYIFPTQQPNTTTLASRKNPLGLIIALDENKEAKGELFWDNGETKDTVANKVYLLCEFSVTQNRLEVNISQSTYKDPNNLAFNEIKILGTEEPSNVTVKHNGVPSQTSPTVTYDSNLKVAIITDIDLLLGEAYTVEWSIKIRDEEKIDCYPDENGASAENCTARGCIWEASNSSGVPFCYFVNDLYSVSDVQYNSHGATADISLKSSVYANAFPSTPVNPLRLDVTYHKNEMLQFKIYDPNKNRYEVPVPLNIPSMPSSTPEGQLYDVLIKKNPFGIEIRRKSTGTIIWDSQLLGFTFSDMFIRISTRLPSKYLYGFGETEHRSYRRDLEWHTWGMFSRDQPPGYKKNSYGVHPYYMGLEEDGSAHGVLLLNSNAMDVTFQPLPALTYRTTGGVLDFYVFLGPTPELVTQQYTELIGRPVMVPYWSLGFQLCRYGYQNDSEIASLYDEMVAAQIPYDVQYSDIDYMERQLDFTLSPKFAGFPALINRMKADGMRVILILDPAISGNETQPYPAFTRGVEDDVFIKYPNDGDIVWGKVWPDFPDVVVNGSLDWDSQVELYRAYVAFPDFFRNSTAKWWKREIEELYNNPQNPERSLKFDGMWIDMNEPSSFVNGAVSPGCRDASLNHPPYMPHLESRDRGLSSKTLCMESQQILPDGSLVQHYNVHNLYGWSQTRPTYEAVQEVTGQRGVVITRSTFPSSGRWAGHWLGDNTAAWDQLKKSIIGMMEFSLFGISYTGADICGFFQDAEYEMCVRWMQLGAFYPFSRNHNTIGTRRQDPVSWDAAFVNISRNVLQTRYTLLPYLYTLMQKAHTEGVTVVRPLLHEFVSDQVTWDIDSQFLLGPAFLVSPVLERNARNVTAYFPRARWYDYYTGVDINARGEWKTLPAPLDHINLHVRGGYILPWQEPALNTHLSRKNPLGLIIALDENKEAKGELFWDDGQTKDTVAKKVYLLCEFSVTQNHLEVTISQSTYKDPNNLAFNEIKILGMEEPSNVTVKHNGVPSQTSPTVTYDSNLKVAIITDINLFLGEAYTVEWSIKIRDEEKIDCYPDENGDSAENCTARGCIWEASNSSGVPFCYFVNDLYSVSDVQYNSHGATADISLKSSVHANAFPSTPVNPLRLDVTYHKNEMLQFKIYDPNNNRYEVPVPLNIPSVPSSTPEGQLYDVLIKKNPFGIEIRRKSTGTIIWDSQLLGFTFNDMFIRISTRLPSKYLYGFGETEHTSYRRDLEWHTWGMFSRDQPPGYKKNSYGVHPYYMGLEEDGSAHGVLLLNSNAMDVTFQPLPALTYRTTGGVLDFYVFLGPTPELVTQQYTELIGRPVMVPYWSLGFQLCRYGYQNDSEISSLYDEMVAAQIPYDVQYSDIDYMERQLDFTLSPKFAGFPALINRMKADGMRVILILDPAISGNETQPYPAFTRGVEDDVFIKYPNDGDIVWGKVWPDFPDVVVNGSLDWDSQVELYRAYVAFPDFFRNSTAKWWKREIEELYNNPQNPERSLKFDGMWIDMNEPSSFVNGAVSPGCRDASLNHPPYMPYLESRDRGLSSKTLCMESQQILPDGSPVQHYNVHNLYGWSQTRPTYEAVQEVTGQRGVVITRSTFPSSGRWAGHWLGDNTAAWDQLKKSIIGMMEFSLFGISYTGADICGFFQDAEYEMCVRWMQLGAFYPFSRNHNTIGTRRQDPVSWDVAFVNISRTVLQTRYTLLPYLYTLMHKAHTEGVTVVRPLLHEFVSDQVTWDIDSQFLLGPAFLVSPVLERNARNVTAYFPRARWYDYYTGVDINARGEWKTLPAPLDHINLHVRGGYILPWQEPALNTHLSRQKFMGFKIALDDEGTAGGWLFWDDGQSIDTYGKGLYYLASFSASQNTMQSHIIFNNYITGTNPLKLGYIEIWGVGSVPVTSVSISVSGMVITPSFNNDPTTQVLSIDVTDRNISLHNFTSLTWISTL

`C=C1C[C@H]2[C@@](C)(C(=O)C(O)=C3C(C)(C)C(=O)CC[C@@]32C)[C@@H]2C(=O)O[C@@](C)(C(=O)OC)C(=O)[C@@]12C` [TERRETONIN A]: the figures for the half-maximal inhibitory concentration (IC50) (in assay [1]; against Maltase-glucoamylase; in assay [4]) were over 212 µM, over 212 µM and over 100 µg/mL, respectively. Besides, the GI50 in assay [2], in assay [3] and in assay [5] was over 100 µg/mL throughout.

For the molecule `COc1cc(-c2cc3c(c(=O)o2)C[C@]2(O)[C@@]4(C)C(=O)C=CC(C)(C)[C@]4(O)CC[C@@]2(C)O3)cc2c1OCO2` [TERRITREM A], the IC50 was over 196 µM in assay [1], over 196 µM against Maltase-glucoamylase and over 100 µg/mL in assay [4]. Besides, the concentration for 50% growth inhibition (GI50) in assay [2], in assay [3] and in assay [5] was over 100 µg/mL each time.

For `C=C1C[C@]2(O)[C@@]3(C)CCC(=O)C(C)(C)C3=C(O)C(=O)[C@@]2(C)[C@@H]2C(=O)O[C@@](C)(C(=O)OC)C(=O)[C@@]12C` [TERRETONIN], the results for the half-inhibitory concentration (IC50) (in assay [1]; against Maltase-glucoamylase; in assay [4]) were over 205 µM, over 205 µM and over 100 µg/mL, respectively. For the same molecule, the GI50 in assay [2], in assay [3] and in assay [5] was over 100 µg/mL in each case.

Source of the values: ChEMBL document CHEMBL1141779, “Sesterterpenoids, terretonins A-D, and an alkaloid, asterrelenin, from Aspergillus terreus” (J Nat Prod, 2005).
